In patent publication EP4755888A1 (ILAb Co., Ltd., priority 2023, dated 2025):

Biological target: PD-1/PD-L1 (Homo sapiens, UniProt Q9NZQ7)
Test: TR-FRET PD-1/PD-L1 binding inhibition at the molecular level (free proteins)
Settings: Tag1-PD-L1 and Tag2-PD-1 proteins, twelve concentrations from 200 nM, 2 hours at room temperature, read-out: FRET assay (IC50)
Outline: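 HTRF read-out at 665/620 nm after 2 h at room temperature. Detection used anti-Tag1 Eu cryptate plus anti-Tag2 XL665 antibodies. Tagged PD-L1 and PD-1 proteins were pre-mixed with compound across twelve […] 1:2 dilutions starting at 200 nM.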

Sequence of PD-1/PD-L1 (Q9NZQ7 19-238 limits assumed): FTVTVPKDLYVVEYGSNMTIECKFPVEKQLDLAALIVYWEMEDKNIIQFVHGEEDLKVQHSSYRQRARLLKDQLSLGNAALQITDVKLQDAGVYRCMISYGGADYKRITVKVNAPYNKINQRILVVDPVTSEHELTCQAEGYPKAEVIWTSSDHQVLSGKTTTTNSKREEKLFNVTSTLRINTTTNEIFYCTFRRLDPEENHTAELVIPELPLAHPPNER

IC50 [µM]	Structure (SMILES)
0.01 to 0.1	O=C(Nc1cccc(-c2cccc(Nc3nc(C(F)(F)F)nc4cccnc34)c2Cl)c1Cl)c1cc2n(n1)CCC[C@@H]2N1CC(C(=O)O)C1 [Compound 277, (S)-1-(2-((2,2'-dichloro-3'-((2-(trifluoromethyl)pyrido[3,2-d]pyrimidin-4-yl)amino)-[1,1'-biphenyl]-3-yl)carbamoyl)-4,5,6,7-tetrahydropyrazolo[1,5-a]pyridin-4-yl)azetidine-3-carboxylic acid]
0.01 to 0.1	O=C(Nc1cccc(-c2cccc(Nc3nc(C(F)(F)F)nc4cccnc34)c2Cl)c1Cl)c1cc2n(n1)CCC[C@H]2N1CC(C(=O)O)C1 [Compound 278, (R)-1-(2-((2,2'-dichloro-3'-((2-(trifluoromethyl)pyrido[3,2-d]pyrimidin-4-yl)amino)-[1,1'-biphenyl]-3-yl)carbamoyl)-4,5,6,7-tetrahydropyrazolo[1,5-a]pyridin-4-yl)azetidine-3-carboxylic acid]
0.01 to 0.1	Cc1nc(Nc2cccc(-c3cccc(NC(=O)c4cc5n(n4)CCC[C@@H]5NC(C)(C)C(=O)O)c3Cl)c2Cl)c2ncccc2n1 [Compound 279, (S)-2-((2-((2,2'-dichloro-3'-((2-methylpyrido[3,2-d]pyrimidin-4-yl)amino)-[1,1'-biphenyl]-3-yl)carbamoyl)-4,5,6,7-tetrahydropyrazolo[1,5-a]pyridin-4-yl)amino)-2-methylpropanoic acid]
< 0.01	Cc1nc(Nc2cccc(-c3cccc(NC(=O)c4cc5n(n4)CCC[C@H]5NC(C)(C)C(=O)O)c3Cl)c2Cl)c2ncccc2n1 [Compound 280, (R)-2-((2-((2,2'-dichloro-3'-((2-methylpyrido[3,2-d]pyrimidin-4-yl)amino)-[1,1'-biphenyl]-3-yl)carbamoyl)-4,5,6,7-tetrahydropyrazolo[1,5-a]pyridin-4-yl)amino)-2-methylpropanoic acid]
< 0.01	Cc1nc(Nc2cccc(-c3cccc(NC(=O)c4cc5n(n4)CCC[C@@H]5N4CC(C(=O)O)C4)c3Cl)c2Cl)c2ncccc2n1 [Compound 281, (S)-1-(2-((2,2'-dichloro-3'-((2-methylpyrido[3,2-d]pyrimidin-4-yl)amino)-[1,1'-biphenyl]-3-yl)carbamoyl)-4,5,6,7-tetrahydropyrazolo[1,5-a]pyridin-4-yl)azetidine-3-carboxylic acid]
< 0.01	Cc1nc(Nc2cccc(-c3cccc(NC(=O)c4cc5n(n4)CCC[C@H]5N4CC(C(=O)O)C4)c3Cl)c2Cl)c2ncccc2n1 [Compound 282, (R)-1-(2-((2,2'-dichloro-3'-((2-methylpyrido[3,2-d]pyrimidin-4-yl)amino)-[1,1'-biphenyl]-3-yl)carbamoyl)-4,5,6,7-tetrahydropyrazolo[1,5-a]pyridin-4-yl)azetidine-3-carboxylic acid]
0.01 to 0.1	O=C(Nc1cccc(-c2cccc(Nc3nccc4cc(CN5CC(F)C5)cnc34)c2Cl)c1Cl)c1cc2n(n1)CCC[C@@H]2N1CCC(C(=O)O)CC1 [Compound 283, (S)-1-(2-((2,2'-dichloro-3'-((3-((3-fluoroazetidin-1-yl)methyl)-1,7-naphthyridin-8-yl)amino)-[1,1'-biphenyl]-3-yl)carbamoyl)-4,5,6,7-tetrahydropyrazolo[1,5-a]pyridin-4-yl)piperidine-4-carboxylic acid]
0.01 to 0.1	O=C(Nc1cccc(-c2cccc(Nc3nccc4cc(CN5CC(F)C5)cnc34)c2Cl)c1Cl)c1cc2n(n1)CCC[C@H]2N1CCC(C(=O)O)CC1 [Compound 284, (R)-1-(2-((2,2'-dichloro-3'-((3-((3-fluoroazetidin-1-yl)methyl)-1,7-naphthyridin-8-yl)amino)-[1,1'-biphenyl]-3-yl)carbamoyl)-4,5,6,7-tetrahydropyrazolo[1,5-a]pyridin-4-yl)piperidine-4-carboxylic acid]
0.01 to 0.1	Cc1c(NC(=O)c2cc3n(n2)CCC[C@@H]3N2CCC(O)CC2)cccc1-c1cccc(Nc2nc(C(F)(F)F)nc3cccnc23)c1C [Compound 285, (S)-N-(2,2'-dimethyl-3'-((2-(trifluoromethyl)pyrido[3,2-d]pyrimidin-4-yl)amino)-[1,1'-biphenyl]-3-yl)-4-(4-hydroxypiperidin-1-yl)-4,5,6,7-tetrahydropyrazolo[1,5-a]pyridine-2-carboxamide]
0.01 to 0.1	Cc1c(NC(=O)c2cc3n(n2)CCC[C@@H]3N2CCC(O)CC2)cccc1-c1cccc(Nc2nc(C(F)F)nc3cccnc23)c1C [Compound 287, (S)-N-(3'-((2-(difluoromethyl)pyrido[3,2-d]pyrimidin-4-yl)amino)-2,2'-dimethyl-[1,1'-biphenyl]-3-yl)-4-(4-hydroxypiperidin-1-yl)-4,5,6,7-tetrahydropyrazolo[1,5-a]pyridine-2-carboxamide]
0.01 to 0.1	Cc1c(NC(=O)c2cc3n(n2)CCC[C@H]3N2CCC(O)CC2)cccc1-c1cccc(Nc2nc(C(F)F)nc3cccnc23)c1C [Compound 288, (R)-N-(3'-((2-(difluoromethyl)pyrido[3,2-d]pyrimidin-4-yl)amino)-2,2'-dimethyl-[1,1'-biphenyl]-3-yl)-4-(4-hydroxypiperidin-1-yl)-4,5,6,7-tetrahydropyrazolo[1,5-a]pyridine-2-carboxamide]
< 0.01	O=C(Nc1cccc(-c2cccc(Nc3nc(C(F)F)nc4cccnc34)c2Cl)c1Cl)c1cc2n(n1)CCC[C@@H]2N1CCC(C(=O)O)CC1 [Compound 289, (S)-1-(2-((2,2'-dichloro-3'-((2-(difluoromethyl)pyrido[3,2-d]pyrimidin-4-yl)amino)-[1,1'-biphenyl]-3-yl)carbamoyl)-4,5,6,7-tetrahydropyrazolo[1,5-a]pyridin-4-yl)piperidine-4-carboxylic acid]
0.01 to 0.1	Cc1c(NC(=O)c2cc3n(n2)CCC[C@@H]3N2CCC(C(=O)O)CC2)cccc1-c1cccc(Nc2nc(C(F)F)nc3cccnc23)c1C [Compound 291, (S)-1-(2-((3'-((2-(difluoromethyl)pyrido[3,2-d]pyrimidin-4-yl)amino)-2,2'-dimethyl-[1,1'-biphenyl]-3-yl)carbamoyl)-4,5,6,7-tetrahydropyrazolo[1,5-a]pyridin-4-yl)piperidine-4-carboxylic acid]
< 0.01	Cc1c(NC(=O)c2cc3n(n2)CCC[C@H]3N2CCC(C(=O)O)CC2)cccc1-c1cccc(Nc2nc(C(F)F)nc3cccnc23)c1C [Compound 292, (R)-1-(2-((3'-((2-(difluoromethyl)pyrido[3,2-d]pyrimidin-4-yl)amino)-2,2'-dimethyl-[1,1'-biphenyl]-3-yl)carbamoyl)-4,5,6,7-tetrahydropyrazolo[1,5-a]pyridin-4-yl)piperidine-4-carboxylic acid]
0.01 to 0.1	O=C(O)CN[C@H]1CCCn2nc(C(=O)Nc3cccc(-c4cccc(Nc5nc(C(F)F)nc6cc(CN7CC[C@@H](O)C7)cnc56)c4Cl)c3Cl)cc21 [Compound 293, 2-(((S)-2-((2,2'-dichloro-3'-((2-(difluoromethyl)-7-(((R)-3-hydroxypyrrolidin-1-yl)methyl)pyrido[3,2-d]pyrimidin-4-yl)amino)-[1,1'-biphenyl]-3-yl)carbamoyl)-4,5,6,7-tetrahydropyrazolo[1,5-a]pyridin-4-yl)amino)acetic acid]
0.01 to 0.1	O=C(Nc1cccc(-c2cccc(Nc3nc(C(F)F)nc4cc(CN5CC[C@@H](O)C5)cnc34)c2Cl)c1Cl)c1cc2n(n1)CCC[C@@H]2N1CCC(O)CC1 [Compound 295, (S)-N-(2,2'-dichloro-3'-((2-(difluoromethyl)-7-(((R)-3-hydroxypyrrolidin-1-yl)methyl)pyrido[3,2-d]pyrimidin-4-yl)amino)-[1,1'-biphenyl]-3-yl)-4-(4-hydroxypiperidin-1-yl)-4,5,6,7-tetrahydropyrazolo[1,5-a]pyridine-2-carboxamide]
0.01 to 0.1	O=C(Nc1cccc(-c2cccc(Nc3nc(C(F)F)nc4cc(CN5CC[C@@H](O)C5)cnc34)c2Cl)c1Cl)c1cc2n(n1)CCC[C@H]2N1CCC(O)CC1 [Compound 296, (R)-N-(2,2'-dichloro-3'-((2-(difluoromethyl)-7-(((R)-3-hydroxypyrrolidin-1-yl)methyl)pyrido[3,2-d]pyrimidin-4-yl)amino)-[1,1'-biphenyl]-3-yl)-4-(4-hydroxypiperidin-1-yl)-4,5,6,7-tetrahydropyrazolo[1,5-a]pyridine-2-carboxamide]
0.1 to 1	CC(C)c1nc(Nc2cccc(-c3cccc(NC(=O)c4cc5n(n4)CCC[C@@H]5N4CCC(C(=O)O)CC4)c3Cl)c2Cl)c2ncccc2n1 [Compound 297, (S)-1-(2-((2,2'-dichloro-3'-((2-isopropylpyrido[3,2-d]pyrimidin-4-yl)amino)-[1,1'-biphenyl]-3-yl)carbamoyl)-4,5,6,7-tetrahydropyrazolo[1,5-a]pyridin-4-yl)piperidine-4-carboxylic acid]
0.01 to 0.1	CC(C)c1nc(Nc2cccc(-c3cccc(NC(=O)c4cc5n(n4)CCC[C@@H]5NC(C)(C)C(=O)O)c3Cl)c2Cl)c2ncccc2n1 [Compound 299, (S)-2-((2-((2,2'-dichloro-3'-((2-isopropyl-pyrido[3,2-d]pyrimidin-4-yl)amino)-[1,1'-biphenyl]-3-yl)carbamoyl)-4,5,6,7-tetrahydropyrazolo[1,5-a]pyridin-4-yl)amino)-2-methylpropanoic acid]
0.1 to 1	CC(C)c1nc(Nc2cccc(-c3cccc(NC(=O)c4cc5n(n4)CCC[C@@H]5N4CC(C(=O)O)C4)c3Cl)c2Cl)c2ncccc2n1 [Compound 301, (S)-1-(2-((2,2'-dichloro-3'-((2-isopropyl-pyrido[3,2-d]pyrimidin-4-yl)amino)-[1,1'-biphenyl]-3-yl)carbamoyl)-4,5,6,7-tetrahydropyrazolo[1,5-a]pyridin-4-yl)azetidine-3-carboxylic acid]
0.01 to 0.1	CC(C)c1nc(Nc2cccc(-c3cccc(NC(=O)c4cc5n(n4)CCC[C@H]5N4CC(C(=O)O)C4)c3Cl)c2Cl)c2ncccc2n1 [Compound 302, (R)-1-(2-((2,2'-dichloro-3'-((2-isopropyl-pyrido[3,2-d]pyrimidin-4-yl)amino)-[1,1'-biphenyl]-3-yl)carbamoyl)-4,5,6,7-tetrahydropyrazolo[1,5-a]pyridin-4-yl)azetidine-3-carboxylic acid]
